Laboratory results taken from EP0791056B1, “LIPID-CLEAVAGE ENZYME COMPLEX” (priority 1994, dated 1996).

Tests used:
LCE [1] = test: Influence of enzyme inhibitors or activators on LCE activity, kidney membrane fraction; assay type: biochemical, Balb/c; conditions: LCE Membranfraktion Niere (Balb/c)
Protocol: (§1) Das Pipettierschema ist in der folgenden Tabelle angegeben. Tabelle
(§2) Zur Untersuchung der enzymatischen Spaltung in Abhängigkeit von der Substratkonzentration wurde eine Substratstammlösung von 0.98 nmol [^14C]-AZT-DMDOPE und 0.7 nmol AZT-DMDOPE/80 µl Aqua bidest. im LCE-Assay angesetzt. Die verschiedenen Substratkonzentrationen im LCE-Assay wurden durch kontinuierliche Verdopplung bzw. Halbierung des Volumens an Substratlösung eingestellt. Die Ansätze wurden in Glasröhrchen (5 ml) vorgelegt und durch Zugabe der Substratlösung gestartet. Die Inkubation wurde bei 37 °C im Wasserbad unter leichtem Schütteln durchgeführt.
(§3) Die Reaktionsansätze des LCE-Assays wurden nach entsprechender Inkubationszeit dem Wasserbad entnommen, und die Reaktion durch Zugabe von 750 µl 2-Propanol gestoppt. Nach gründlicher Durchmischung wurden die Ansätze anschließend mit 700 µl auf Raumtemperatur erwärmtem n-Heptan versetzt. Die Ansätze wurden erneut für 30 sec gut gemischt und zur Beschleunigung der Phasentrennung in der Minifuge T bei 3200 rpm für 15 min bei Raumtemperatur zentrifugiert. Anschließend wurden 500 µl der oberen Phase (n-Heptan) entnommen und in neue Glasröhrchen (5 ml) mit 10 mg Kieselgel 60 H und 200 µl n-Heptan überführt. Die Ansätze wurden für 30 sec gut durchmischt und zur Sedimentation des Kieselgels für 10 min unter oben genannten Bedingungen zentrifugiert. Vom Überstand wurden anschließend 500 µl entnommen und mit 3 ml Szintillationsflüssigkeit versetzt. Die Messung der Radioaktivität erfolgte für 4 min im Flüssigkeits-Szintillations-Analysator. Zur Bestimmung des Absolutwertes an Radioaktivität wurden 200 µl der Substratlösung mit 3 ml Szintillationsflüssigkeit versetzt und unter gleichen Bedingungen im Flüssigkeits-Szintillations-Analysator gemessen.

LCE [2] = test: Effect of phospholipase C/D inhibitors and activators on LCE as stated in the description; assay type: biochemical
Phospholipase C = conditions: cited from earlier work
LCE [3] = test: Influence of enzyme inhibitors or activators on LCE activity, CEM-SS membrane fraction; assay type: biochemical; conditions: LCE Membranfraktion CEM-SS
Protocol: as §1, §2
as §3, with “Vom Überstand wurden anschließend 500 µl entnommen und mit 3 ml Szintillationsflüssigkeit versetzt. Die Messung der Radioaktivität erfolgte für 4 min im Flüssigkeits-Szintillations-Analysator. Zur Bestimmung des Absolutwertes an Radioaktivität wurden 200 µl der Substratlösung mit 3 ml Szintillationsflüssigkeit versetzt und unter gleichen Bedingungen im Flüssigkeits-Szintillations-Analysator gemessen.” left out

For `S=C(S)OC1CC2CC1C1CCCC21` (stereo not shown) [D 609, Tricyclodecan-9-yl-xanthogenat], the “Einfluß auf LCE-Aktivität” value (LCE [1]) is given as “Stimulation Stimulation”, the “Einfluß auf LCE (Hemmung/Aktivierung)” value (LCE [2]) is given as “aktiviert” and the “Einfluß auf Phospholipase C” value (Phospholipase C) is given as “inhibiert”. The “Einfluß auf LCE-Aktivität” value (LCE [3]) was “Stimulation Stimulation”.
